What all share (assay type): cell-based
In experiment [1] the target is human TLR9 (Homo sapiens (Human), UniProt Q9NR96). The experiment can be described thus: HEK293-Blue-hTLR-9 cells assay. As to conditions: HEK293-Blue-hTLR9 cells, ODN2006 stimulation, 20 hrs, SEAP reporter; read-out: HEK/hTLR9 IC50. The source says: HEK293-Blue-hTLR-9 Cells Assay:
A stable HEK293-Blue-hTLR-9 cell line was purchased from InvivoGen (Cat. #: hkb-htlr9, San Diego, California, USA). These cells were originally designed for studying the stimulation of human TLR9 by monitoring the activation of NF-κB. A SEAP (secreted embryonic alkaline phosphatase) reporter gene was placed under the control of the IFN-β minimal promoter fused to five NF-κB and AP-1-binding sites. The SEAP was induced by activating NF-κB and AP-via stimulating HEK-Blue hTLR9 cells with TLR9 ligands. Therefore the reporter expression was declined by TLR9 antagonist under the stimulation of a ligand, such as ODN2006 (Cat. #: tlrl-2006-1, Invivogen, San Diego, California, USA), for incubation of 20 hrs. The cell culture supernatant SEAP reporter activity was determined using QUANTI-Blue™ kit (Cat. #: rep-qb1, Invivogen, San Diego, California, USA) at a wavelength of 640 nm, a detection medium that turns purple or blue in the presence of alkaline phosphatase.
(§1) HEK293-Blue-hTLR9 cells were incubated at a density of 250,000˜450,000 cells/mL in a volume of 170 μL in a 96-well plate in Dulbecco's Modified Eagle's medium (DMEM) containing 4.5 g/L glucose, 50 U/mL penicillin, […], […], 2 mM L-glutamine, 10% (v/v) heat-inactivated fetal bovine serum with addition of 20 μL test compound in a serial dilution in the presence of final DMSO at 1% and 10 μL of 20 μM ODN2006 in above DMEM, perform incubation under 37° C. in a CO2 incubator for 20 hrs. Then 20 μL of the supernatant from each well was incubated with 180 μL Quanti-blue substrate solution at 37° C. for 2 h and the absorbance was read at 620-655 nm using a spectrophotometer. The signaling pathway that TLR9 activation leads to downstream NF-κB activation has been widely accepted, and therefore similar reporter assay was modified for evaluating TLR9 antagonist.

The target of experiment [2] is human TLR7 (Homo sapiens (Human), UniProt Q9NYK1). The experiment can be described thus: HEK293-Blue-hTLR-7 cells assay. The settings on record: HEK293-Blue-hTLR7 cells, R848 stimulation, 20 hrs, SEAP reporter; read-out: HEK/hTLR7 IC50.
Description: HEK293-BLUE-hTLR-7 CELLS ASSAY:
(§2) A stable HEK293-Blue-hTLR-7 cell line was purchased from InvivoGen (Cat. #: hkb-htlr7, San Diego, California, USA). These cells were originally designed for studying the stimulation of human TLR7 by monitoring the activation of NF-κB. A SEAP (secreted embryonic alkaline phosphatase) reporter gene was placed under the control of the IFN-β minimal promoter fused to five NF-κB and AP-1-binding sites. The SEAP was induced by activating NF-κB and AP-1 via stimulating HEK-Blue hTLR7 cells with TLR7 ligands. Therefore the reporter expression was declined by TLR7 antagonist under the stimulation of a ligand, such as R848 (Resiquimod), for incubation of 20 hrs. The cell culture supernatant SEAP reporter activity was determined using QUANTI-Blue™ kit (Cat. #: rep-qb1, Invivogen, San Diego, Ca, USA) at a wavelength of 640 nm, a detection medium that turns purple or blue in the presence of alkaline phosphatase.
as §1, with “HEK293-Blue-hTLR7 cells” for “HEK293-Blue-hTLR9 cells”, “μM R848” for “μM ODN2006”, “2 hrs” for “2 h”, “that TLR7” for “that TLR9”, “evaluating TLR7” for “evaluating TLR9”

Experiment [3] deals with human TLR8 (Homo sapiens (Human), UniProt Q9NR97). The experiment can be described thus: HEK293-Blue-hTLR-8 cells assay. The settings on record: HEK293-Blue-hTLR8 cells, R848 stimulation, 20 hrs, SEAP reporter; read-out: HEK/hTLR8 IC50.
Description: HEK293-Blue-hTLR-8 Cells Assay:
as §2, with “HEK293-Blue-hTLR-8” for “HEK293-Blue-hTLR-7”, “hkb-htlr8,” for “hkb-htlr7,”, “TLR8” for “TLR7”, “hTLR8” for “hTLR7”, “R848,” for “R848 (Resiquimod),”, “rep-Qb1,” for “rep-qb1,”
HEK293-Blue-hTLR8 cells were incubated at a density of 250,000-450,000 cells/mL in a volume of 170 μL in a 96-well plate in Dulbecco's Modified Eagle's medium (DMEM) containing 4.5 g/L glucose, 50 U/mL penicillin, […], […], 2 mM L-glutamine, 10% (v/v) heat-inactivated fetal bovine serum with addition of 20 μL test compound in a serial dilution in the presence of final DMSO at 1% and 10 μL of 60 μM R848 in above DMEM, perform incubation under 37° C. in a CO2 incubator for 20 hrs. Then 20 μL of the supernatant from each well was incubated with 180 μL Quanti-blue substrate solution at 37° C. for […] and the absorbance was read at 620˜655 nm using a spectrophotometer. The signaling pathway that TLR8 activation leads to downstream NF-κB activation has been widely accepted, and therefore similar reporter assay was modified for evaluating TLR8 antagonist.

Chain of human TLR8 (Q9NR97 27-1041): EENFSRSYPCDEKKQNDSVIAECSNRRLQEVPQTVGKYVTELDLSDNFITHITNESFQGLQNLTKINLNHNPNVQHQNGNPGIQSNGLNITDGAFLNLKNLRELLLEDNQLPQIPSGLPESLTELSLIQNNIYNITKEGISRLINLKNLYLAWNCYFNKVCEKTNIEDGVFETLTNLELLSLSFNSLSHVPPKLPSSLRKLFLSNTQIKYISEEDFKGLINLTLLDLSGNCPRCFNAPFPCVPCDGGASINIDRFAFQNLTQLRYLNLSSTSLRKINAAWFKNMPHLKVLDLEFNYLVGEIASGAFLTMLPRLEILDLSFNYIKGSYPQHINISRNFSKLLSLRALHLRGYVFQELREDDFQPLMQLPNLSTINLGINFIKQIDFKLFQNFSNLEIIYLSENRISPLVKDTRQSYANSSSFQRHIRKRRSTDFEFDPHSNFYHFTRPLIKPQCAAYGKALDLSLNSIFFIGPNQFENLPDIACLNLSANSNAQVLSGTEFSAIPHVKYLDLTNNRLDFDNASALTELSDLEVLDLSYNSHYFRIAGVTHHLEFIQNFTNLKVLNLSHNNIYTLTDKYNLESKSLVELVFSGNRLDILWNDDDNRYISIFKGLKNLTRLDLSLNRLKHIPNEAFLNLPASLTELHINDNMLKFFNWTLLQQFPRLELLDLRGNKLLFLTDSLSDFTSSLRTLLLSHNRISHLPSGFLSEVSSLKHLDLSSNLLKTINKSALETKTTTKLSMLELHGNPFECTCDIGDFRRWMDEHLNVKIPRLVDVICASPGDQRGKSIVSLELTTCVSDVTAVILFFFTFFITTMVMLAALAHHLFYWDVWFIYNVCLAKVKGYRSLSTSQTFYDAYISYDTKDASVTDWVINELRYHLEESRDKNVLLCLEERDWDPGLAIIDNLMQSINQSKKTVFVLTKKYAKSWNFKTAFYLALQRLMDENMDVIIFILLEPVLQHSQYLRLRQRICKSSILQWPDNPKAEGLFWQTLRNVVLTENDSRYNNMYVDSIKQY
Chain of human TLR9 (Q9NR96 26-1032): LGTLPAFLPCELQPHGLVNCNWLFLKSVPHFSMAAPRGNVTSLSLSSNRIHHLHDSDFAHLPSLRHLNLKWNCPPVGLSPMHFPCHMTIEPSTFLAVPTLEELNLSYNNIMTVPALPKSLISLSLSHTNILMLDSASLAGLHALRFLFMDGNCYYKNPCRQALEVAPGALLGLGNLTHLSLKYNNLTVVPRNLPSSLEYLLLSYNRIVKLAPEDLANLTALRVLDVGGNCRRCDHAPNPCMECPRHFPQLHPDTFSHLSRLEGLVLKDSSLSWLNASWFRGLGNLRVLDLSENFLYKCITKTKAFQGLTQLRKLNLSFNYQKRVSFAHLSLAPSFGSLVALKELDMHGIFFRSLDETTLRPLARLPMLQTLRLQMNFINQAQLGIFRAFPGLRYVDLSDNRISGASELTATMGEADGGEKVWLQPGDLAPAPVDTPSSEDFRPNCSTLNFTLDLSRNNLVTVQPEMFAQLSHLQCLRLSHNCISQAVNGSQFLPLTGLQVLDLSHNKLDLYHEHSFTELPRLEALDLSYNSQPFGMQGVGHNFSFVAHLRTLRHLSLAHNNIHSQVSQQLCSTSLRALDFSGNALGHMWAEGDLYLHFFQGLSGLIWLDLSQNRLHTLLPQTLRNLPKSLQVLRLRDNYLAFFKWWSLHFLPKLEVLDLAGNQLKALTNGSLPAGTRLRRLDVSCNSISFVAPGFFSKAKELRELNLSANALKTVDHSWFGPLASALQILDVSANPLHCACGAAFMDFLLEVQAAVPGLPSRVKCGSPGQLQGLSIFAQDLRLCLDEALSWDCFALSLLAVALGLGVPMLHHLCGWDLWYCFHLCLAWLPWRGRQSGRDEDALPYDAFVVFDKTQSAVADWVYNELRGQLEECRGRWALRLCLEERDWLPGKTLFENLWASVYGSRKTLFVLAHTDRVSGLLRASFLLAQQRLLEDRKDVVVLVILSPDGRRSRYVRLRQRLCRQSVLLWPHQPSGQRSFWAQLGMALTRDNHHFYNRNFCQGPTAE
Chain of human TLR7 (Q9NYK1 27-1049): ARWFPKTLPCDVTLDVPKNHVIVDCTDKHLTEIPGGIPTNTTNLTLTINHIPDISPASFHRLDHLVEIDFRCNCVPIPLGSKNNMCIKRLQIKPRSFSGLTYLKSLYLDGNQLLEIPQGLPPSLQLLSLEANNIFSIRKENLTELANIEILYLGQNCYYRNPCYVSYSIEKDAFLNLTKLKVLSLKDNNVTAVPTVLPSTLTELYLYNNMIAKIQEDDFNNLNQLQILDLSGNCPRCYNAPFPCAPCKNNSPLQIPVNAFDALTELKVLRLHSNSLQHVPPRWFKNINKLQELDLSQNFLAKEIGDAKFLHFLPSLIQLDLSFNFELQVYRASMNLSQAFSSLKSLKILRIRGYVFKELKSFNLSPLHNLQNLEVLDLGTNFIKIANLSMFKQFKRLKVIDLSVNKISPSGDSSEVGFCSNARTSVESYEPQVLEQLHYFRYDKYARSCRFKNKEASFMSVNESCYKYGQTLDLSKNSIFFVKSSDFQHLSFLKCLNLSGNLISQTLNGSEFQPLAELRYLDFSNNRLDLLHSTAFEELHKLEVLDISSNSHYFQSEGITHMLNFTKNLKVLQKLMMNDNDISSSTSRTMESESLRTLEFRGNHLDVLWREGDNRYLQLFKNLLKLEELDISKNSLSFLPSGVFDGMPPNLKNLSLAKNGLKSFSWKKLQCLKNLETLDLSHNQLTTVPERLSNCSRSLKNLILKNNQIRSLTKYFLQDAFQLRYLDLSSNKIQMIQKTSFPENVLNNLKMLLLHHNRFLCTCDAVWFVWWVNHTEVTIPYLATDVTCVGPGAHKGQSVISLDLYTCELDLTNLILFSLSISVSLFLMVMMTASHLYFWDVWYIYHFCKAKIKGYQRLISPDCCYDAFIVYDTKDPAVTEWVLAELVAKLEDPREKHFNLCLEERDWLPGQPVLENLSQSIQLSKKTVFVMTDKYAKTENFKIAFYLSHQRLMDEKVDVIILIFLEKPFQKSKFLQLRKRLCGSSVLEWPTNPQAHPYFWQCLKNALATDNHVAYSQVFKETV

For `C[C@@H]1CN(c2ccc(C#N)c3ncccc23)C[C@@H]2CC(N3CCN(c4cc5c(cn4)CCNC5)CC3)CN21` (stereo in doubt) [Example 13, 5-[(4R,7R,8aS)-4-methyl-7-[4-(5,6,7,8-tetrahydro-2,6-naphthyridin-3-yl)piperazin-1-yl]-3,4,6,7,8,8a-hexahydro-1H-pyrrolo[1,2-a]pyrazin-2-yl]quinoline-8-carbonitrile], the IC50 in experiment [1] came out at 0.049 µM; in experiment [2], 0.0149 µM; in experiment [3] it was 0.0082 µM.
As for `C[C@@H]1CN(c2ccc(C#N)c3ncccc23)C[C@@H]2CC(Oc3ccc4c(n3)CCNC4)CN21` (stereo partly drawn) [Example 14, 5-[(4R,8aS)-4-methyl-7-(5,6,7,8-tetrahydro-1,6-naphthyridin-2-yloxy)-3,4,6,7,8,8a-hexahydro-1H-pyrrolo[1,2-a]pyrazin-2-yl]quinoline-8-carbonitrile], the IC50 turned out to be 0.247 µM in experiment [1], 0.0162 µM in experiment [2] and 0.004 µM in experiment [3].
Regarding `[2H]c1ccc2c(N3C[C@@H]4C[C@H](N5CC(C)(N)C5)CN4[C@H](C)C3)ccc(C#N)c2n1` [Example 17, 5-[(4R,7S,8aS)-7-(3-amino-3-methyl-azetidin-1-yl)-4-methyl-3,4,6,7,8,8a-hexahydro-1H-pyrrolo[1,2-a]pyrazin-2-yl]-2-deuterio-quinoline-8-carbonitrile], the results for the IC50 in experiment [1], in experiment [2] and in experiment [3] were 0.175 µM, 0.0113 µM and 0.0147 µM, respectively.
In the same order, the values of `C[C@@H]1Cc2nc(N[C@@H]3C[C@H]4CN(c5ccc(C#N)c6ncccc56)C[C@@H](C)N4C3)ccc2CN1` [Example 8B, 5-[(4R,7R,8aS)-4-methyl-7-[[(7R)-7-methyl-5,6,7,8-tetrahydro-1,6-naphthyridin-2-yl]amino]-3,4,6,7,8,8a-hexahydro-1H-pyrrolo[1,2-a]pyrazin-2-yl]quinoline-8-carbonitrile] are 0.0894 µM, 0.0147 µM and 0.0075 µM.
In the same order, the values of `C[C@@H]1CN(c2ccc(C#N)c3ncccc23)C[C@@H]2C[C@@H](Nc3ccc4c(n3)C[C@H](C)NC4)CN21` [Example 8A, 5-[(4R,7R,8aS)-4-methyl-7-[[(7S)-7-methyl-5,6,7,8-tetrahydro-1,6-naphthyridin-2-yl]amino]-3,4,6,7,8,8a-hexahydro-1H-pyrrolo[1,2-a]pyrazin-2-yl]quinoline-8-carbonitrile] are 0.0631 µM, 0.0111 µM and 0.0036 µM.
As to `CO[C@@H]1CN(c2cc3c(cn2)CCN([C@H]2C[C@H]4CN(c5ccc(C#N)c6ncccc56)C[C@@H](C)N4C2)C3)C[C@H]1N` [Example 12, 5-[(4R,7S,8aS)-7-[7-[(3R,4R)-3-amino-4-methoxy-pyrrolidin-1-yl]-3,4-dihydro-1H-2,6-naphthyridin-2-yl]-4-methyl-3,4,6,7,8,8a-hexahydro-1H-pyrrolo[1,2-a]pyrazin-2-yl]quinoline-8-carbonitrile], the IC50 in experiment [1] is 0.108 µM; in experiment [2], 0.0451 µM; in experiment [3], 0.0172 µM.
In the same order, the values of `C[C@@H]1NCc2nc(N[C@@H]3C[C@H]4CN(c5ccc(C#N)c6ncccc56)C[C@@H](C)N4C3)ccc21` [Example 7B, 5-[(4R,7R,8aS)-4-methyl-7-[[(5S)-5-methyl-6,7-dihydro-5H-pyrrolo[3,4-b]pyridin-2-yl]amino]-3,4,6,7,8,8a-hexahydro-1H-pyrrolo[1,2-a]pyrazin-2-yl]quinoline-8-carbonitrile] are 0.0565 µM, 0.0298 µM and 0.0113 µM.
Taken in the same sequence, the figures for `C[C@@H]1CN(c2ccc(C#N)c3ncccc23)C[C@@H]2C[C@@H](N(C)c3ccc4c(n3)CCNC4)CN21` [Example 5, 5-[(4R,7R,8aS)-4-methyl-7-[methyl(5,6,7,8-tetrahydro-1,6-naphthyridin-2-yl)amino]-3,4,6,7,8,8a-hexahydro-1H-pyrrolo[1,2-a]pyrazin-2-yl]quinoline-8-carbonitrile] were 0.0781 µM, 0.0169 µM and 0.0029 µM.
In the same order, the values of `C[C@@H]1CN(c2ccc(C#N)c3ncccc23)C[C@@H]2C[C@H](N3CCc4cc(N5CCNCC5)ccc4C3)CN21` [Example 10, 5-[(4R,7S,8aS)-4-methyl-7-(6-piperazin-1-yl-3,4-dihydro-1H-isoquinolin-2-yl)-3,4,6,7,8,8a-hexahydro-1H-pyrrolo[1,2-a]pyrazin-2-yl]quinoline-8-carbonitrile] are 0.0811 µM, 0.0301 µM and 0.0249 µM.
As to `[2H]c1ccc2c(N3C[C@@H]4C[C@H](N5CCC6(CCCNC6)CC5)CN4[C@H](C)C3)ccc(C#N)c2n1` [Example 21, 2-Deuterio-5-[(4R,7S,8aS)-7-(2,9-diazaspiro[5.5]undecan-9-yl)-4-methyl-3,4,6,7,8,8a-hexahydro-1H-pyrrolo[1,2-a]pyrazin-2-yl]quinoline-8-carbonitrile], the results for the IC50 in experiment [1], in experiment [2] and in experiment [3] were 0.0451 µM, 0.0304 µM and 0.0103 µM, respectively.
Turning to `C[C@@H]1CN(c2ccc(C#N)c3ncccc23)C[C@@H]2C[C@@H](Nc3ccc4c(n3)CCN(C)C4)CN21` [Example 4, 5-[(4R,7R,8aS)-4-methyl-7-[(6-methyl-7,8-dihydro-5H-1,6-naphthyridin-2-yl)amino]-3,4,6,7,8,8a-hexahydro-1H-pyrrolo[1,2-a]pyrazin-2-yl]quinoline-8-carbonitrile], the IC50 in experiment [1] turned out to be 0.147 µM; in experiment [2], 0.0217 µM; in experiment [3], 0.0063 µM.
